For series [1], the system named is static SQL-SAL liver model. Briefly: Static 4-cell SQL-SAL liver in 96-well microplates (vitamin D3). As to conditions: for Concentration in liver efflux media: vitamin D3 experiment, 96-well 4-cell liver module, 72 h, media pooled. It counts as in vitro ADME, human. The protocol:
Media without dexamethasone was used to avoid downstream toxicity to the human neurons in the NVU. […]
The intestinal/liver-conditioned media efflux was collected and samples were tested by MS or transported on dry ice for testing in the kidney module, or the BBB/NVU module.
Dexamethasone, normally used to maintain hepatocyte differentiation, was removed from the liver media for functional coupling to avoid downstream toxicity to the human neurons in the NVU. […] Briefly, cryopreserved human hepatocytes were seeded into collagen type 1 coated 96-well plates at 26,000 hepatocytes/well and allowed to attach overnight in hepatocyte plating media (HPM). The HPM was decanted and 1.25x10^5 Ea.Hy.926 endothelial cells and 8 X10^4 differentiated U937 immune cells in MEM media supplemented with 10% FBS and L-Glutamine were added. After 2 h the media was decanted and 40 µL of a slurry of 1.5 mg/mL gelling collagen type 1 in Williams E media with 4 X 10^4 LX-2 stellate cells was added.

Series [2] concerns Kidney MPS Organ Module (PTK). Nature of the series: Vitamin D binding protein as carrier in PTK module. To be noted: 1 μM 25-(OH) VD3.
Series [3] concerns differentiated human jejunal enteroids. Nature of the series: Intestine module: jejunal enteroid Transwell transport and metabolism. As to conditions: for Concentration in intestine apical media / Concentration in intestine basolateral media: 100 μM vitamin D3 micelles apical; for Concentration in micelle preparation: synthetic micelles containing 100 μM vitamin D3.
Text: (§1) Mass spectrometry was used to measure the concentration of compound and metabolites in the media following exposure in each MPS organ module.
(§2) Human jejunal enteroid cultures were isolated from two separate donors as described[59] and maintained in culture as spherical enteroids in Matrigel (Becton Dickinson, Franklin Lakes, NJ) until dissociated and plated as monolayer cultures on collagen IV coated polyethylene terephthalate (PET) Transwell® membrane inserts (Corning, Inc., Corning, NY) (Fig. 1A)[55][59][60][61]. The apical chamber received 100 μl of a 5 × 10^6/mL of the suspended cells in proliferation media. The basolateral chamber received 600 μl of proliferation media. […] Jejunal barrier monolayer with intact tight junctions were established by TEER testing and the restricted diffusion of 4 kD FITC-dextran polymers over the 24 h period (Supplemental Information Supplemental Table S8).
(§3) TMA was prepared at a concentration 3 mM by dissolving the neat compound directly into intestinal apical media. […] The dried residue was solubilized in apical media and mixed by sonication in a water bath for 30 s.
(§4) All treatments were conducted in duplicate modules in each laboratory. […] The apical and basolateral media were collected in glass vials and frozen at −80 °C for MS analysis and transported to UPitt for testing in the SQL-SAL module.
The test system of series [4] is blood-brain barrier/neurovascular unit (BBB/NVU). Nature of the series: BBB/NVU module penetration. As to conditions: for Concentration in brain neuronal efflux / Concentration in brain vascular efflux: vitamin D3 experiment, 24 h; for Penetration through blood-brain barrier (MPS): BBB/NVU module, liver-conditioned media, TMAO 12 h, others 24 h.
For series [5], the system named is proximal tubule kidney (PTK) module. Nature of the series: Proximal tubule kidney (PTK) module, vitamin D3 metabolites.
Experimental: Briefly, a single 100 μm diameter lumen was pre-cast in gelling collagen inside the microfluidic device and then seeded with passage 5 kidney PTEC to 100% confluence according to established methods[52]. The kidney proximal tubule modules were then perfused (30 μL/h) for 8 days with 100% kidney proximal tubule media prior to perfusion with mixed media solutions.
All media samples were stored in amber glass vials at −80 °C until LC-MS/MS analysis.
Another series concerns Liver MPS Organ Module. Nature of the series: Effect of vitamin D binding protein on recovery and metabolism in liver module. It counts as in vitro ADME, human. To be noted: for VD3 Recovered in Efflux Media / 25-(OH) VD3 formation: 7 μM VitD3. As to the method:
Media without dexamethasone was used to avoid downstream toxicity to the human neurons in the NVU. […] Media samples were collected after 24 h and 48 h incubations.
Samples from the treatment conditions were collected after 24-h and 48-h incubations and stored in amber glass vials at -80°C for LC-MS/MS analysis.

The conditions of series [6]: cited from earlier work.
Series [7] deals with blood-brain barrier/neurovascular unit (BBB/NVU). As to conditions: human, 24 h.
For series [8], the system named is differentiated human jejunal enteroids.
Text: as §1, §2, §3, §4
[9] abbreviates: 0-48 h, 50% liver-conditioned, N=2.
[10] abbreviates: initial four-organ functional study, no DBP.

SMILES strings stand for the structures. Where two headings read alike, the source gives them in different places.

As to `C=C1CCC(O)C/C1=C\C=C1\CCCC2(C)C1CCC2C(C)CCC(O)C(C)(C)O` (stereo not shown) [24,25-(OH)2 Vitamin D3, 24,25-(OH)2 vitamin D3], the “Concentration in liver efflux media” value in series [1] is 0.25 ng/mL. Besides, in [2] (48-72 h, media + 2% FBS), the “Metabolite formation in kidney efflux” value is on record as 6.80 ± 1.6 pmol/day/ 10^6 Proximal Tubule Cells. In [3] (24 h), the “Concentration in intestine apical media” value was “< LOD^2 < LOD < LOD”. In addition, the “Concentration in intestine basolateral media” value in series [3] (24 h) is recorded as “< LOD^2 < LOD < LOD”. Besides, in [3], the “Concentration in micelle preparation” value is reported as “< LOD^2 < LOD < LOD”. Also, in series [4], the “Concentration in brain neuronal efflux” value is “LOQ”. Besides, in [4], the “Concentration in brain vascular efflux” value is 0.079 ± 0.015 ng/mL. In addition, the “Concentration in kidney efflux media” value came out at 0.082 ng/mL in series [5] (setting [9]); 0.12 ng/mL in [5] (0-48 h, 80% liver-conditioned); 0.11 ng/mL in series [5] (0-120 h, 50% liver-conditioned); 0.16 ng/mL in series [5] (0-120 h, 80% liver-conditioned).

For the compound `C=C1CC[C@H](O)C/C1=C/C=C1\CCC[C@]2(C)[C@@H]([C@H](C)CCCC(C)C)CC[C@@H]12` [Vitamin D3, vitamin D3, reference compound], the “VD3 Recovered in Efflux Media” value is listed as 20% in the series with Liver MPS Organ Module (0-24 h, Williams E Media + 1.25 mg/ml BSA (no DBP)); 20% recovery in the series on Liver MPS Organ Module (0-24 h, Williams E Media + 1.25 mg/ml BSA (no DBP), listed as VD3); 57% recovery with Liver MPS Organ Module (0-24 h, Williams E Media, 1.25 mg/ml BSA, 3 μM Vitamin D Binding Protein, listed as VD3); ~100% in the series on Liver MPS Organ Module (24-48 h, Williams E Media, 1.25 mg/ml BSA, 3 μM Vitamin D Binding Protein); 100% recovery in the series with Liver MPS Organ Module (24-48 h, Williams E Media, 1.25 mg/ml BSA, 3 μM Vitamin D Binding Protein, listed as VD3). Also, the “Penetration through blood-brain barrier, Clinical” value in [6] (Table 2, clinical) is “VD3 & 25(OH)VD3 Penetration”. For the same compound, in series [7], the “Concentration in brain neuronal efflux” value came to 0.19 ± 0.23 ng/mL. Also, the “Concentration in brain vascular efflux” value in series [7] was 45 ± 6.2 ng/mL. In addition, the “Liver metabolism, MPS” value in [1] (Table 2, MPS model, vitamin D3) is reported as “VD3 → 25(OH)VD3 & 24,25(OH)2VD3”. In addition, the “Vitamin D3 perfused into the liver that was unrecoverable” value in [1] (setting [10]) amounted to 80%. The “Concentration in liver efflux media” value in series [1] is reported as 1100 (pooled)^3 ng/ml. The “Concentration in intestine apical media” value in series [8] (human, 24 h, 100 µM) came out at 20000 ± 2200 ng/mL. The “Concentration in intestine basolateral media” value in [8] (human, 24 h, 100 µM) came to 8300 ± 410 ng/mL. Besides, the “Share of initial vitamin D3 concentration transported to basolateral media” value in series [3] (100 μM vitamin D3 in micelles apical, 24 h) is 23%. Besides, the “Concentration in micelle preparation” value in [3] was determined as 36000 ± 4200 ng/mL. Further, the “Penetration through blood-brain barrier (MPS)” value in [4] amounted to 0.4%. In addition, the “Concentration in kidney efflux media” value came out at 1.5 ng/mL in [5] (setting [9]); 4.3 ng/mL in series [5] (0-48 h, 80% liver-conditioned); 1.0 ng/mL in series [5] (0-120 h, 50% liver-conditioned); 1.4 ng/mL in series [5] (0-120 h, 80% liver-conditioned).

`C=C1/C(=C\C=C2/CCC[C@]3(C)[C@@H]([C@H](C)CCCC(C)(C)O)CC[C@@H]23)C[C@@H](O)C[C@@H]1O` [1α,25-(OH)2 Vitamin D3, 1α,25-(OH)2 vitamin D3]: the “Concentration in liver efflux media” value in series [1] is 0.0064 ng/mL. In addition, in series [8], the “Concentration in micelle preparation” value was “< LOD^2 < LOD < LOD”.

As for `C=C1CC[C@H](O)[C@H](O)/C1=C/C=C1\CCC[C@]2(C)[C@@H]([C@H](C)CCCC(C)(C)O)CC[C@@H]12` [4β,25-(OH)2 Vitamin D3, 4β,25-(OH)2 vitamin D3], the “Concentration in liver efflux media” value in series [1] is 0.047 ng/mL. Besides, the “Concentration in intestine apical media” value in series [3] (24 h) is “< LOD^2 < LOD < LOD”. Besides, in series [3] (24 h), the “Concentration in intestine basolateral media” value is given as “< LOD^2 < LOD < LOD”. In addition, the “Concentration in micelle preparation” value in [3] is recorded as “< LOD^2 < LOD < LOD”. Besides, the “Concentration in brain neuronal efflux” value in series [4] is “LOD”. In series [4], the “Concentration in brain vascular efflux” value was 0.0081 ± 0.0029 ng/mL. For the same compound, the “Concentration in kidney efflux media” value in [5] (setting [9]) was 0.0033 ng/mL; in series [5] (0-48 h, 80% liver-conditioned) it was 0.0064 ng/mL; in [5] (0-120 h, 50% liver-conditioned), 0.0076 ng/mL; in series [5] (0-120 h, 80% liver-conditioned), 0.014 ng/mL.

Turning to `C=C1CC[C@H](O)C/C1=C/C=C1\CCC[C@]2(C)[C@@H]([C@H](C)CCCC(C)(C)O)CC[C@@H]12` [25-(OH) Vitamin D3, 25-(OH) vitamin D3], the “25-(OH) VD3 formation as % of in vivo rate” value is reported as 4.9 % of in vivo rate in the series on Liver MPS Organ Module (0-24 h, 3 μM DBP) and 2.7 % of in vivo rate in the series with Liver MPS Organ Module (0-24 h, no DBP). Further, the “25-(OH) VD3 formation” value in the series on Liver MPS Organ Module (0-24 h, 3 μM DBP) is reported as 12.63 pmol/day/10^6 Hepatocytes; in the series on Liver MPS Organ Module (0-24 h, no DBP), 7.00 pmol/day/10^6 Hepatocytes. Also, the “Improvement of formation and recovery of the metabolite with DBP” value in the series with Liver MPS Organ Module (DBP:vitamin D3 3:1 versus no DBP) was 2–3 fold. Besides, the “Kidney metabolism, Clinical” value in [6] (Table 2, clinical) is 25(OH)VD3 → 1α,25(OH)2VD3 & 24,25(OH)2VD3. Further, the “Penetration through blood-brain barrier, Clinical” value in series [6] (Table 2, clinical) is given as “VD3 & 25(OH)VD3 Penetration”. Moreover, the “Plasma 25-(OH) vitamin D3 transported by DBP” value in series [6] (in humans) was 85–90%. Also, in series [1], the “Concentration in liver efflux media” value was 3.0 ng/mL. Besides, the “25-(OH) VD3 recovery” value in series [2] (48-72 h, Renal Tubular Epithelial Media + 3 μM Vitamin D Binding Protein) is 100%; in series [2] (48-72 h, Renal Tubular Epithelial Media + 2% FBS), 8%. In addition, in [2] (media + 2% FBS), the “Recovered from syringes and tubing leading up to MPS module” value was 16%. For the same compound, in series [3] (24 h), the “Concentration in intestine apical media” value is “< LOQ^1 < LOQ < LOQ”. Moreover, the “Concentration in intestine basolateral media” value in [3] (24 h) is “< LOQ^1 < LOQ < LOQ”. In addition, the “Concentration in micelle preparation” value in series [3] is listed as “< LOQ^1 < LOQ < LOQ”. Also, the “Penetration through blood-brain barrier (MPS)” value in series [4] was “approximately 6%”; in [4] (listed as 25(OH) VD3) it was 6%. The “Concentration in brain neuronal efflux” value in [4] came to 0.051 ± 0.022 ng/mL. In addition, the “Concentration in brain vascular efflux” value in series [4] was 0.82 ± 0.15 ng/mL. Further, the “Concentration in kidney efflux media” value in [5] (setting [9]) came out at 0.12 ng/mL; in series [5] (0-48 h, 80% liver-conditioned), 0.23 ng/mL; in series [5] (0-120 h, 50% liver-conditioned) it was 0.29 ng/mL; in series [5] (0-120 h, 80% liver-conditioned), 0.48 ng/mL. Moreover, the “25-(OH) vitamin D3 perfused into the kidney that was unrecoverable” value in series [5] (setting [10]) is given as 90%.
